# Several values for one entry are separate records, joined by “and”; a condition that tells them apart may be missing. Equal values may be shown once. Read-outs that look alike come from different tables or passages of the source.
# Assays:
# [1] = system: feline calicivirus F4 strain; assay: Inactivation of feline caliciviruses (Example 10), plaque assay on CRFK cells; type: cell-based
# [2] = system: feline calicivirus F4 strain
# [3] = system: poliovirus type I live vaccine strain
# [4] = system: influenza virus Type A Aichi strain A/Aichi/68 (H3N2); type: cell-based
# [5] = system: influenza viruses; conditions: pH 6.5 (FIG. 4)
# [6] = system: Herpes simplex virus type I VR-539; assay: Inactivation of herpesviruses, plaque assay on Vero cells; type: cell-based
compound,measurement,setting,value
chlorous acid [Chlorous acid aqueous solution],active chlorine concentration at which feline caliciviruses were inactivated to below the detectable limit,[1],≥ 200 ppm
same,effect of pH on inactivation of feline caliciviruses,[1],hardly any effect due to pH
same,concentration with disinfecting capability against feline caliciviruses,[2],400 ppm
same,ratio of the amount of residual infectious viruses,[2],0.38 and 0.66
same,disinfection of polioviruses,[3],disinfection was only observed at pH of 5.5
same,concentration at which most polioviruses were disinfected,[3]; pH 5.5,500 ppm
same,concentration at which influenza viruses were inactivated to below the detectable limit,[4]; pH 5.5,≤ 100 ppm
same,ratio of the amount of residual infectious viruses,[4]; pH 5.5,0.34
same,infectious viruses decreased to,[4]; pH 6.5,about 1%
same,ratio of the amount of residual infectious viruses,[4]; pH 6.5,0.63
same,concentration at which viruses were inactivated to about the detectable limit,[4]; pH 7.5,200 ppm
same,ratio of the amount of residual infectious viruses,[4]; pH 7.5,1.16
same,virus disinfection effect on influenza viruses,[4]; pH 7.5,significant virus disinfection effect
same,effect on influenza viruses,[4]; pH 8.5,there is an effect even at pH of 8.5
same,ratio of the amount of residual infectious viruses,[4]; pH 8.5,1.31
same,contact needed to completely inactivate influenza viruses,[5]; 5 ppm chlorous acid concentration,one minute or less
same,time after which disinfecting of influenza viruses was almost completed,[5]; 5 ppm upon contact,~30 s
same,concentration exhibiting a superb sterilizing effect on HSV-I,[6]; pH 4.5-5.5,≥ 100 ppm
same,Number of Residual Viruses in Test Solution/Number of Residual Viruses only with Buffer × 100 (%),"[6]; pH 4.5, 10 ppm",48%
same,Number of Residual Viruses in Test Solution/Number of Residual Viruses only with Buffer × 100 (%),"[6]; pH 4.5, 50 ppm",1.3%
same,Number of Residual Viruses in Test Solution/Number of Residual Viruses only with Buffer × 100 (%),"[6]; pH 4.5, 100 ppm",<0.3%
same,Number of Residual Viruses in Test Solution/Number of Residual Viruses only with Buffer × 100 (%),"[6]; pH 4.5, 100 ppm, listed as chlorous acid aqueous solution",below the detectable limit
same,Number of Residual Viruses in Test Solution/Number of Residual Viruses only with Buffer × 100 (%),"[6]; pH 4.5, 150 ppm",<0.2%
same,Number of Residual Viruses in Test Solution/Number of Residual Viruses only with Buffer × 100 (%),"[6]; pH 4.5, 150 ppm, listed as chlorous acid aqueous solution",below the detectable limit
same,Number of Residual Viruses in Test Solution/Number of Residual Viruses only with Buffer × 100 (%),"[6]; pH 4.5, 200 ppm",<0.4%
same,Number of Residual Viruses in Test Solution/Number of Residual Viruses only with Buffer × 100 (%),"[6]; pH 4.5, 200 ppm, listed as chlorous acid aqueous solution",below the detectable limit
same,Number of Residual Viruses in Test Solution/Number of Residual Viruses only with Buffer × 100 (%),"[6]; pH 5.5, 10 ppm",100%
same,Number of Residual Viruses in Test Solution/Number of Residual Viruses only with Buffer × 100 (%),"[6]; pH 5.5, 50 ppm",12.1%
same,Number of Residual Viruses in Test Solution/Number of Residual Viruses only with Buffer × 100 (%),"[6]; pH 5.5, 100 ppm",10.1%
same,Number of Residual Viruses in Test Solution/Number of Residual Viruses only with Buffer × 100 (%),"[6]; pH 5.5, 150 ppm",<0.2%
same,Number of Residual Viruses in Test Solution/Number of Residual Viruses only with Buffer × 100 (%),"[6]; pH 5.5, 150 ppm, listed as chlorous acid aqueous solution",below the detectable limit
same,Number of Residual Viruses in Test Solution/Number of Residual Viruses only with Buffer × 100 (%),"[6]; pH 5.5, 200 ppm",<0.5%
same,Number of Residual Viruses in Test Solution/Number of Residual Viruses only with Buffer × 100 (%),"[6]; pH 5.5, 200 ppm, listed as chlorous acid aqueous solution",below the detectable limit
same,Number of Residual Viruses in Test Solution/Number of Residual Viruses only with Buffer × 100 (%),"[6]; pH 6.5, 10 ppm",100%
same,Number of Residual Viruses in Test Solution/Number of Residual Viruses only with Buffer × 100 (%),"[6]; pH 6.5, 50 ppm",63.6%
same,Number of Residual Viruses in Test Solution/Number of Residual Viruses only with Buffer × 100 (%),"[6]; pH 6.5, 100 ppm",76.6%
same,Number of Residual Viruses in Test Solution/Number of Residual Viruses only with Buffer × 100 (%),"[6]; pH 6.5, 150 ppm",22.2%
same,Number of Residual Viruses in Test Solution/Number of Residual Viruses only with Buffer × 100 (%),"[6]; pH 6.5, 200 ppm",<0.6%
same,Number of Residual Viruses in Test Solution/Number of Residual Viruses only with Buffer × 100 (%),"[6]; pH 7.5, 10 ppm",100%
same,Number of Residual Viruses in Test Solution/Number of Residual Viruses only with Buffer × 100 (%),"[6]; pH 7.5, 50 ppm",77.4%
same,Number of Residual Viruses in Test Solution/Number of Residual Viruses only with Buffer × 100 (%),"[6]; pH 7.5, 100 ppm",84.7%
same,Number of Residual Viruses in Test Solution/Number of Residual Viruses only with Buffer × 100 (%),"[6]; pH 7.5, 150 ppm",55.8%
same,Number of Residual Viruses in Test Solution/Number of Residual Viruses only with Buffer × 100 (%),"[6]; pH 7.5, 200 ppm",16.8%
same,Number of Residual Viruses in Test Solution/Number of Residual Viruses only with Buffer × 100 (%),"[6]; pH 8.5, 10 ppm",100%
same,Number of Residual Viruses in Test Solution/Number of Residual Viruses only with Buffer × 100 (%),"[6]; pH 8.5, 50 ppm",75.3%
same,Number of Residual Viruses in Test Solution/Number of Residual Viruses only with Buffer × 100 (%),"[6]; pH 8.5, 100 ppm",98.4%
same,Number of Residual Viruses in Test Solution/Number of Residual Viruses only with Buffer × 100 (%),"[6]; pH 8.5, 150 ppm",80%
same,Number of Residual Viruses in Test Solution/Number of Residual Viruses only with Buffer × 100 (%),"[6]; pH 8.5, 200 ppm",30%
same,concentration giving a sufficient effect,[6]; pH of 6.5 or lower (FIG. 2B),≥ 200 ppm
same,concentration giving a sufficient sterilizing effect,[6]; significant at pH of 5.5 or lower (FIG. 2B),≥ 50 ppm
sodium chlorite [Sodium chlorite aqueous solution],ratio of the amount of residual infectious viruses,[4]; pH 5.5,1.07
same,residual relative infectivity,[4]; pH 5.5,1/10
same,ratio of the amount of residual infectious viruses,[4]; pH 6.5,1.19
same,ratio of the amount of residual infectious viruses,[4]; pH 7.5,1.09
same,ratio of the amount of residual infectious viruses,[4]; pH 8.5,1.07
same,Number of Residual Viruses in Test Solution/Number of Residual Viruses only with Buffer × 100 (%),"[6]; pH 4.5, 10 ppm",52%
same,Number of Residual Viruses in Test Solution/Number of Residual Viruses only with Buffer × 100 (%),"[6]; pH 4.5, 50 ppm",51.5%
same,Number of Residual Viruses in Test Solution/Number of Residual Viruses only with Buffer × 100 (%),"[6]; pH 4.5, 100 ppm",27.6%
same,Number of Residual Viruses in Test Solution/Number of Residual Viruses only with Buffer × 100 (%),"[6]; pH 4.5, 150 ppm",34.4%
same,Number of Residual Viruses in Test Solution/Number of Residual Viruses only with Buffer × 100 (%),"[6]; pH 4.5, 200 ppm",<0.4%
same,Number of Residual Viruses in Test Solution/Number of Residual Viruses only with Buffer × 100 (%),"[6]; pH 5.5, 10 ppm",100%
same,Number of Residual Viruses in Test Solution/Number of Residual Viruses only with Buffer × 100 (%),"[6]; pH 5.5, 50 ppm",87.3%
same,Number of Residual Viruses in Test Solution/Number of Residual Viruses only with Buffer × 100 (%),"[6]; pH 5.5, 100 ppm",93.2%
same,Number of Residual Viruses in Test Solution/Number of Residual Viruses only with Buffer × 100 (%),"[6]; pH 5.5, 150 ppm",100%
same,Number of Residual Viruses in Test Solution/Number of Residual Viruses only with Buffer × 100 (%),"[6]; pH 5.5, 200 ppm",8.1%
same,Number of Residual Viruses in Test Solution/Number of Residual Viruses only with Buffer × 100 (%),"[6]; pH 6.5, 10 ppm",100%
same,Number of Residual Viruses in Test Solution/Number of Residual Viruses only with Buffer × 100 (%),"[6]; pH 6.5, 50 ppm",83.6%
same,Number of Residual Viruses in Test Solution/Number of Residual Viruses only with Buffer × 100 (%),"[6]; pH 6.5, 100 ppm",87.9%
same,Number of Residual Viruses in Test Solution/Number of Residual Viruses only with Buffer × 100 (%),"[6]; pH 6.5, 150 ppm",100%
same,Number of Residual Viruses in Test Solution/Number of Residual Viruses only with Buffer × 100 (%),"[6]; pH 6.5, 200 ppm",15.3%
same,Number of Residual Viruses in Test Solution/Number of Residual Viruses only with Buffer × 100 (%),"[6]; pH 7.5, 10 ppm",100%
same,Number of Residual Viruses in Test Solution/Number of Residual Viruses only with Buffer × 100 (%),"[6]; pH 7.5, 50 ppm",90.4%
same,Number of Residual Viruses in Test Solution/Number of Residual Viruses only with Buffer × 100 (%),"[6]; pH 7.5, 100 ppm",100%
same,Number of Residual Viruses in Test Solution/Number of Residual Viruses only with Buffer × 100 (%),"[6]; pH 7.5, 150 ppm",100%
same,Number of Residual Viruses in Test Solution/Number of Residual Viruses only with Buffer × 100 (%),"[6]; pH 7.5, 200 ppm",10.4%
same,Number of Residual Viruses in Test Solution/Number of Residual Viruses only with Buffer × 100 (%),"[6]; pH 8.5, 10 ppm",100%
same,Number of Residual Viruses in Test Solution/Number of Residual Viruses only with Buffer × 100 (%),"[6]; pH 8.5, 50 ppm",91.1%
same,Number of Residual Viruses in Test Solution/Number of Residual Viruses only with Buffer × 100 (%),"[6]; pH 8.5, 100 ppm",78.2%
same,Number of Residual Viruses in Test Solution/Number of Residual Viruses only with Buffer × 100 (%),"[6]; pH 8.5, 150 ppm",94%
same,Number of Residual Viruses in Test Solution/Number of Residual Viruses only with Buffer × 100 (%),"[6]; pH 8.5, 200 ppm",7.6%
[Na+].[O-]Cl [(4) sodium hypochlorite aqueous solution],Number of Residual Viruses in Test Solution/Number of Residual Viruses only with Buffer × 100 (%),"[6]; pH 4.5, 200 ppm",below the detectable limit

# Reference: patent publication US20160113282A1 (HONBU SANKEI CO., LTD., priority 2013, published 2016)
